Test [1] has as its system T24-BAG4 human bladder carcinoma cells expressing an activated H-ras gene. The test is described as follows: Cell Mat Assay, T24 tumor cells. The following applies: Homo sapiens, read-out: Tumor (T-24) IC50. Type of test: cell-based.
Test [2] has as its system Human tumor cells. The test is described as follows: Soft Agar Assay (anchorage-independent growth). The following applies: range over 19 tumor cell lines (K ras NIH 3T3, H ras NIH 3T3, HTB 177, HTB 173, A549, HTB 175, HTB 119, HTB 183, HPAF II, MCF-7, HBL100, Du4475, MDA MB 468, DU 145, MDA MB453, BT474, PC3, DLD I, AsPc-1), read-out: IC50 for each cell line. Type of test: cell-based.

The subject of test [3] is Ras-CVLS processing in COS monkey kidney cells. The test is described as follows: COS cell assay: inhibition of Ras-CVLS processing (Western blot). It is filed as cell-based. As to conditions: Primates, COS. A general note: A western blot detects proteins with antibodies after separation by electrophoresis.
Test [4] relates to Normal human HEPM fibroblasts. The test is described as follows: Cell Mat Assay, normal cell mat. Type of test: cell-based. As to conditions: normal monolayer.
Test [5] has as its system SW620-BAG human colon carcinoma cells expressing an activated K-ras gene. The test is described as follows: Cell Mat Assay, SW620 tumor cells. As to conditions: Homo sapiens, SW-620, Mat assay. Type of test: cell-based.
Test [6] deals with DLD-1-BAG human colon carcinoma cells expressing as activated K-ras gene. Briefly: Cell Mat Assay, DLD-1 tumor cells. It is filed as cell-based. As to conditions: Homo sapiens, DLD-1, Mat assay.
Test [7] relates to DLD-1 (human colon carcinoma cells, ATCC # CCL 221). Briefly: In Vivo Anti-Tumor Studies, subcutaneous DLD-1 tumors. The arrangement: species or system athymic nu/nu female mice. The following applies: Mus musculus, DLD-1, po, QID, 4 weeks, range over the listed compounds. The source says:
Tumor cells (5 X 10^5 to 8 X 10^6) of DLD-1 (human colon carcinoma cells, ATCC # CCL 221) are innolculated subcutaneously into the flank of 5-6 week o;d athymic nu/nu female mice.

Structures are written as SMILES.

In the case of `NC(=O)N1CCC(CC(=O)N2CCC(C3c4ncc(Br)cc4CCc4cc(Cl)cc(Br)c43)CC2)CC1` (centres unmarked) [Example 10], the IC50 in test [1] is below 1600 nM; in test [2] it was 40 to 3000 nM; in test [3], below 25 nM; in test [4], above 25000 nM; in test [5], 3100 nM; in test [6], below 1600 nM. Further, the inhibition in vivo at 10 mg/kg in test [7] (10 mg/kg p.o.) is 7 to 50%. This compound also displayed an inhibition in vivo at 50 mg/kg in test [7] (50 mg/kg p.o.) of 35.4 to 83%.

The IC50 is the concentration at which inhibition is half-maximal. In general, inhibition in vivo refers to the drop in the measured response relative to a control, in per cent.

These data come from EP1019392B1, “TRICYCLIC AMIDES USEFUL FOR INHIBITION OF G-PROTEIN FUNCTION AND FOR TREATMENT OF PROLIFERATIVE DISEASES” (SCHERING CORPORATION, priority 1995, dated 1997).
